{"source": "patent US7608581B2", "about": "“Biofunctional, antimicrobial coatings for medical devices” (Affinergy, Inc., priority 2004, dated 2009)", "conditions": "as compared to SEQ ID NO:73 (two cysteines substituted by serine)", "data": [{"sequence": "SDKSHKHWYSYESKYGGS [SEQ ID NO:74]", "values": [{"measurement": "reduction in binding affinity", "result": 10, "unit": "fold"}]}]}
